Each structure is given as a SMILES string.

A short description of the data set: Human HepG2 cell viability assay in 384 well format. Type of data set: toxicity, cell-based. On the set-up: dose 125 nL, time 70.5 hour; concentration not given beside the values. To be noted: HepG2 cells, read-out: Inhibition.
In the case of `CCN(Cc1noc(C2CCC2)n1)C(=O)CCc1cc2n(n1)CCNC2`, the cytotoxicity at 70.5 h is -7.31%.

As to `CCNC(=O)[C@@H]1CCCN1C(=O)c1cccc(CCC(C)(C)O)c1`, the cytotoxicity at 70.5 h is -7.73%.

Turning to `FC1(F)CCN(Cc2cccnc2)CC12CCN(c1ccccn1)C2` (stereo not drawn), the cytotoxicity at 70.5 h is -15.1%.

In the case of `Cc1ccccc1CNC(=O)N1C[C@H]2C[C@H](C(=O)N(C)C)[C@@H](C1)O2`, the cytotoxicity at 70.5 h is -5.69%.

In the case of `Cc1ccc(C)n1-c1ccsc1C(=O)NCC(=O)N1CCCC1`, the cytotoxicity at 70.5 h was -1.31%.

On to `CCn1c(N)nc2cc(C(=O)N3CC(c4ccccn4)C3)cnc21`, for which the cytotoxicity at 70.5 h is -5.92%.

`CC(C)(C#N)C(=O)N1CCCC(c2cc(C(F)(F)F)[nH]n2)C1` (stereo not drawn): the cytotoxicity at 70.5 h is -0.389%.

For the molecule `CCOCCN1CCN(Cc2nnc(-c3occc3C)o2)CC1`, the cytotoxicity at 70.5 h is 9.82%.

Take `Cc1ccc(=O)n(CC2(O)CCN(Cc3c(F)cccc3F)CC2)n1`: the cytotoxicity at 70.5 h is 0.803%.

As for `Cc1ccc(-c2ccc(Cl)nn2)cc1S(=O)(=O)N1CCOCC1`, the cytotoxicity at 70.5 h was -5.38%.

As for `COc1ncccc1C(=O)N1CC(c2nc(-c3ccccn3)no2)C1`, the cytotoxicity at 70.5 h is 19.5%.

For the molecule `CC(C)COC(=O)N1CCCN(Cc2nnc(C(C)(C)C)o2)CC1`, the cytotoxicity at 70.5 h was -4.02%.

Regarding `O=C1CC[C@]2(CC[C@@H](NCc3cccnc3)CC2)N1Cc1ccccc1`, the cytotoxicity at 70.5 h was -11.6%.

As to `Cn1cc(S(=O)(=O)N(Cc2ccc(F)cc2F)C2CC2)cc1C(N)=O`, the cytotoxicity at 70.5 h was -7.08%.

In the case of `CN(c1ccc(OCc2cnc(Cl)s2)cc1)S(C)(=O)=O`, the cytotoxicity at 70.5 h stood at 5.74%.

Turning to `CCc1n[nH]c(C2CN(C(=O)c3nc(C)ncc3Cl)CCO2)n1` (stereo not drawn), the cytotoxicity at 70.5 h is -7.75%.

Take `O=C(C1CC1)N1CCc2c(ncnc2N2CCN3CCCC3C2)C1` (stereo not drawn): the cytotoxicity at 70.5 h came out at 26%.

On to `COc1ccc(N2Cc3nc(N)ncc3C2=O)cc1Cl`, for which the cytotoxicity at 70.5 h was -3.37%.

Regarding `COc1ccc(-n2nnc(C(N)=O)n2)cc1`, the cytotoxicity at 70.5 h was -7.17%.

On to `CC1(C)CN(CC(F)(F)F)CCN1CC(=O)NC1CC1`, for which the cytotoxicity at 70.5 h was -6.02%.

Consider `Cc1csc([C@@H]2C[C@@H]3CCN(C(=O)c4cc(C)on4)C[C@H]3O2)n1`, for which the cytotoxicity at 70.5 h was -1.08%.

Take `CC[C@]12CN3C[C@](CC)(CN(C1)C3c1[nH]c(=O)[nH]c(=O)c1C)C2=O` (stereo partly drawn): the cytotoxicity at 70.5 h came to 19.3%.

Take `COc1cc(C(=O)N2CCC(c3n[nH]c(C4CC4)n3)CC2)ccc1C`: the cytotoxicity at 70.5 h was 36.5%.

Regarding `CC(C)N(C)CC(=O)NCC(O)c1cc2ccccc2s1` (stereo not drawn), the cytotoxicity at 70.5 h was -7.72%.

Regarding `O=S(=O)(NCC1(c2cccs2)CCOCC1)c1cccnc1`, the cytotoxicity at 70.5 h is -6.99%.

Regarding `CCOCCCNc1ncc(-c2onc(C)c2C)c(-c2ccco2)n1`, the cytotoxicity at 70.5 h was -10.1%.

With `Cn1cccc1C(=O)N1CC[C@@H]2[C@@H]1CC(=O)N2CC1CCOCC1`, the cytotoxicity at 70.5 h was 0.858%.

On to `Cc1nnc2n1CC(CNc1cnc3ccccc3n1)CC2` (stereo not drawn), for which the cytotoxicity at 70.5 h is -9.52%.

Take `CCC(=O)N(C)CC(=O)Nc1ccc(Br)cn1`: the cytotoxicity at 70.5 h is 2.06%.

Regarding `Cc1ccc2c(c1)[C@@H](CC(=O)N1CCOCC1)CCO2`, the cytotoxicity at 70.5 h was determined as 0.54%.

As to `CC1(C)Cc2c(cnn2-c2cccc(F)c2)C(NC2CCSCC2)C1` (stereo not drawn), the cytotoxicity at 70.5 h was determined as 9.46%.

On to `CN(C)CC1CN(Cc2coc(-c3ccccc3Cl)n2)CCO1` (stereo not drawn), for which the cytotoxicity at 70.5 h is 7.1%.

On to `CC(C)Nc1ncnc2c1CCN(C(=O)CC1CCCC1)CC2`, for which the cytotoxicity at 70.5 h worked out at 9.38%.

Consider `c1cnn(CC2CN(CCCOc3ccc4c(c3)OCO4)CCO2)c1` (stereo not drawn), for which the cytotoxicity at 70.5 h is -8.43%.

Consider `Cc1c[nH]c(CN(C)c2nc(C3CCCC3)nc3c2cnn3C)n1`, for which the cytotoxicity at 70.5 h was -2.19%.

Take `N#Cc1ncn(CCS(=O)(=O)c2ccccc2)n1`: the cytotoxicity at 70.5 h was -16.8%.

For `CC(=O)N1CCCN(C(=O)NCCOc2ccc3c(c2)OCO3)CC1`, the cytotoxicity at 70.5 h is -8.5%.

Regarding `CS(=O)(=O)N1CCCC(Cc2cnc(Br)cn2)C1` (stereo not drawn), the cytotoxicity at 70.5 h is 22.6%.

(Values after ChEMBL document CHEMBL3507680, “University of Dundee, Gates Library screen for HepG2 cell viability”.)
